ChEMBL document CHEMBL4229455, “Synthesis and anticancer activity of novel bisindolylhydroxymaleimide derivatives with potent GSK-3 kinase inhibition” (Bioorg Med Chem, 2018)

How the values were obtained:
Format in all cases: functional
NCI-H522 = assay: Cytotoxicity against human NCI-H522 cells assessed as cell growth at 1 uM after 48 hrs by SRB assay relative to control; conditions: NCI-H522, 48 h, read-out: Activity
A549 = assay: Cytotoxicity against human A549 cells assessed as cell growth at 0.1 uM after 48 hrs by SRB assay relative to control; conditions: A549, 48 h, read-out: Activity
NCI-H460 = assay: Cytotoxicity against human NCI-H460 cells after 48 hrs by SRB assay; conditions: NCI-H460, 48 h
RXF 393 [1] = assay: Cytotoxicity against human RXF393 cells assessed as cell growth at 0.1 uM after 48 hrs by SRB assay relative to control; conditions: RXF 393, 48 h, read-out: Activity
MDA-MB-468 = assay: Cytotoxicity against human MDA-MB-468 cells after 48 hrs by SRB assay; conditions: MDA-MB-468, 48 h
SK-MEL-2 [2] = assay: Cytotoxicity against human SK-MEL-2 cells assessed as cell growth at 1 uM after 48 hrs by SRB assay relative to control; conditions: SK-MEL-2, 48 h, read-out: Activity
TK-10 = assay: Cytotoxicity against human TK10 cells assessed as cell growth at 0.1 uM after 48 hrs by SRB assay relative to control; conditions: TK-10, 48 h, read-out: Activity
HT-29 [3] = assay: Cytotoxicity against human HT-29 cells after 48 hrs by SRB assay; conditions: HT-29, 48 h
SF-268 [4] = assay: Cytotoxicity against human SF268 cells assessed as cell growth at 100 uM after 48 hrs by SRB assay relative to control; conditions: SF-268, 48 h, read-out: Activity
SK-MEL-2 [5] = assay: Cytotoxicity against human SK-MEL-2 cells assessed as cell growth at 0.01 uM after 48 hrs by SRB assay relative to control; conditions: SK-MEL-2, 48 h, read-out: Activity
UACC-62 = assay: Cytotoxicity against human UACC62 cells assessed as cell growth at 100 uM after 48 hrs by SRB assay relative to control; conditions: UACC-62, 48 h, read-out: Activity
SR = assay: Cytotoxicity against human SR cells assessed as cell growth at 100 uM after 48 hrs by SRB assay relative to control; conditions: read-out: Activity
K562 [6] = assay: Cytotoxicity against human K562 cells after 48 hrs by SRB assay; conditions: K562, 48 h
UACC-257 [7] = assay: Cytotoxicity against human UACC257 cells assessed as cell growth at 100 uM after 48 hrs by SRB assay relative to control; conditions: UACC-257, 48 h, read-out: Activity
SN12C = assay: Cytotoxicity against human SN12C cells assessed as cell growth at 1 uM after 48 hrs by SRB assay relative to control; conditions: read-out: Activity
LOX IMVI = assay: Cytotoxicity against human LOXIMVI cells assessed as cell growth at 0.01 uM after 48 hrs by SRB assay relative to control; conditions: read-out: Activity
ACHN [8] = assay: Cytotoxicity against human ACHN cells assessed as cell growth at 0.1 uM after 48 hrs by SRB assay relative to control; conditions: read-out: Activity
HL-60(TB) = assay: Cytotoxicity against human HL-60(TB) cells after 48 hrs by SRB assay; conditions: HL-60, 48 h
HOP-92 = assay: Cytotoxicity against human HOP92 cells assessed as cell growth at 0.1 uM after 48 hrs by SRB assay relative to control; conditions: HOP-92, 48 h, read-out: Activity
IGROV-1 = assay: Cytotoxicity against human IGROV1 cells assessed as cell growth at 0.1 uM after 48 hrs by SRB assay relative to control; conditions: IGROV-1, 48 h, read-out: Activity
K562 [9] = assay: Cytotoxicity against human K562 cells assessed as cell growth at 0.01 uM after 48 hrs by SRB assay relative to control; conditions: K562, 48 h, read-out: Activity
NCI-H23 = assay: Cytotoxicity against human NCI-H23 cells assessed as cell growth at 0.1 uM after 48 hrs by SRB assay relative to control; conditions: NCI-H23, 48 h, read-out: Activity
DU-145 = assay: Cytotoxicity against human DU145 cells assessed as cell growth at 0.01 uM after 48 hrs by SRB assay relative to control; conditions: DU-145, 48 h, read-out: Activity
HT-29 [10] = assay: Cytotoxicity against human HT-29 cells assessed as cell growth at 1 uM after 48 hrs by SRB assay relative to control; conditions: HT-29, 48 h, read-out: Activity
OVCAR-3 = assay: Cytotoxicity against human OVCAR3 cells after 48 hrs by SRB assay; conditions: OVCAR-3, 48 h
SNB-75 [11] = assay: Cytotoxicity against human SNB75 cells assessed as cell growth at 1 uM after 48 hrs by SRB assay relative to control; conditions: SNB-75, 48 h, read-out: Activity
786-0 = assay: Cytotoxicity against human 786-O cells after 48 hrs by SRB assay; conditions: 786-0, 48 h
MDA-MB-435 = assay: Cytotoxicity against human MDA-MB-435 cells assessed as cell growth at 100 uM after 48 hrs by SRB assay relative to control; conditions: MDA-MB-435, 48 h, read-out: Activity
MDA-MB-231 = assay: Cytotoxicity against human MDA-MB-231 cells assessed as cell growth at 0.01 uM after 48 hrs by SRB assay relative to control; conditions: MDA-MB-231, 48 h, read-out: Activity
SF-539 = assay: Cytotoxicity against human SF539 cells assessed as cell growth at 100 uM after 48 hrs by SRB assay relative to control; conditions: SF-539, 48 h, read-out: Activity
SNB-75 [12] = assay: Cytotoxicity against human SNB75 cells assessed as cell growth at 0.01 uM after 48 hrs by SRB assay relative to control; conditions: SNB-75, 48 h, read-out: Activity
UACC-257 [13] = assay: Cytotoxicity against human UACC257 cells assessed as cell growth at 0.1 uM after 48 hrs by SRB assay relative to control; conditions: UACC-257, 48 h, read-out: Activity
RXF 393 [14] = assay: Cytotoxicity against human RXF393 cells assessed as cell growth at 0.01 uM after 48 hrs by SRB assay relative to control; conditions: RXF 393, 48 h, read-out: Activity
OVCAR-8 = assay: Cytotoxicity against human OVCAR8 cells assessed as cell growth at 1 uM after 48 hrs by SRB assay relative to control; conditions: OVCAR-8, 48 h, read-out: Activity
ACHN [15] = assay: Cytotoxicity against human ACHN cells after 48 hrs by SRB assay; conditions: for CC50: read-out: LC50 (the source's name)
SF-268 [16] = assay: Cytotoxicity against human SF268 cells assessed as cell growth at 0.1 uM after 48 hrs by SRB assay relative to control; conditions: SF-268, 48 h, read-out: Activity

N#CCCCCCn1cc(C2=C(c3cn(CCCCCC#N)c4ccccc34)C(=O)N(O)C2=O)c2ccccc21
growth at 1 µM (NCI-H522): 85% | growth at 0.1 µM (A549): 102% | GI50 (NCI-H460): 5.05 µM | LC50 (NCI-H460): > 100 µM | TGI (NCI-H460): 33 µM | growth at 0.1 µM (RXF 393 [1]): 102% | GI50 (MDA-MB-468): 3.47 µM | LC50 (MDA-MB-468): > 100 µM | TGI (MDA-MB-468): 13.9 µM | growth at 1 µM (SK-MEL-2 [2]): 97% | growth at 0.1 µM (TK-10): 95% | GI50 (HT-29 [3]): 10.2 µM | LC50 (HT-29 [3]): > 100 µM | TGI (HT-29 [3]): 40.7 µM | growth at 100 µM (SF-268 [4]): 8% | growth at 0.01 µM (SK-MEL-2 [5]): 100% | growth at 100 µM (UACC-62): -55% | growth at 100 µM (SR): -14% | GI50 (K562 [6]): 3.59 µM | LC50 (concentration killing 50% of cells) (K562 [6]): > 100 µM | TGI (K562 [6]): > 100 µM | growth at 100 µM (UACC-257 [7]): -19% | growth at 1 µM (SN12C): 93% | growth at 0.01 µM (LOX IMVI): 94% | growth at 0.1 µM (ACHN [8]): 91% | GI50 (HL-60(TB)): 2.54 µM | LC50 (HL-60(TB)): > 100 µM | TGI (HL-60(TB)): 6.44 µM | growth at 0.1 µM (HOP-92): 97% | growth at 0.1 µM (IGROV-1): 101% | growth at 0.01 µM (K562 [9]): 85% | growth at 0.1 µM (NCI-H23): 90% | growth at 0.01 µM (DU-145): 101% | growth at 1 µM (HT-29 [10]): 106% | GI50 (OVCAR-3): 3.81 µM | LC50 (OVCAR-3): > 100 µM | TGI (OVCAR-3): 19 µM | growth at 1 µM (SNB-75 [11]): 80% | GI50 (786-0): 10.3 µM | LC50 (786-0): > 100 µM | TGI (786-0): > 100 µM | growth at 100 µM (MDA-MB-435): -27% | growth at 0.01 µM (MDA-MB-231): 96% | growth at 100 µM (SF-539): -36% | growth at 0.01 µM (SNB-75 [12]): 79% | growth at 0.1 µM (UACC-257 [13]): 100% | growth at 0.01 µM (RXF 393 [14]): 96% | growth at 1 µM (OVCAR-8): 95% | GI50 (ACHN [15]): 8.04 µM | TGI (ACHN [15]): > 100 µM | CC50 (ACHN [15]): > 100 µM | growth at 0.1 µM (SF-268 [16]): 95%

Cn1cc(C2=C(c3cn(C)c4ncccc34)C(=O)NC2=O)c2ccccc21
growth at 1 µM (NCI-H522): 93% | growth at 0.1 µM (A549): 94% | GI50 (NCI-H460): 3.8 µM | TGI (NCI-H460): 22 µM | growth at 0.1 µM (RXF 393 [1]): 98% | GI50 (MDA-MB-468): 2.22 µM | TGI (MDA-MB-468): 9.46 µM | growth at 1 µM (SK-MEL-2 [2]): 111% | growth at 0.1 µM (TK-10): 105% | GI50 (HT-29 [3]): 3.07 µM | TGI (HT-29 [3]): 20.6 µM | growth at 100 µM (SF-268 [4]): -12% | growth at 0.01 µM (SK-MEL-2 [5]): 109% | growth at 100 µM (UACC-62): -51% | growth at 100 µM (SR): -21% | GI50 (K562 [6]): 2.74 µM | TGI (K562 [6]): > 100 µM | growth at 100 µM (UACC-257 [7]): -12% | growth at 1 µM (SN12C): 76% | growth at 0.01 µM (LOX IMVI): 101% | growth at 0.1 µM (ACHN [8]): 99% | GI50 (HL-60(TB)): 4.05 µM | TGI (HL-60(TB)): 17.9 µM | growth at 0.1 µM (HOP-92): 83% | growth at 0.1 µM (IGROV-1): 97% | growth at 0.01 µM (K562 [9]): 108% | growth at 0.1 µM (NCI-H23): 95% | growth at 0.01 µM (DU-145): 107% | growth at 1 µM (HT-29 [10]): 93% | GI50 (OVCAR-3): 4.49 µM | TGI (OVCAR-3): 36.8 µM | growth at 1 µM (SNB-75 [11]): 32% | GI50 (786-0): 3.59 µM | TGI (786-0): 23.7 µM | growth at 100 µM (MDA-MB-435): -35% | growth at 0.01 µM (MDA-MB-231): 99% | growth at 100 µM (SF-539): -64% | growth at 0.01 µM (SNB-75 [12]): 83% | growth at 0.1 µM (UACC-257 [13]): 103% | growth at 0.01 µM (RXF 393 [14]): 98% | growth at 1 µM (OVCAR-8): 95% | GI50 (ACHN [15]): 2.93 µM | TGI (ACHN [15]): 26.2 µM | CC50 (ACHN [15]): > 100 µM | growth at 0.1 µM (SF-268 [16]): 102%
